From patent publication US10807968B2, “Substituted 2-(het)arylimidazolylcarboxyamides as pesticides” (Bayer CropScience Aktiengesellschaft, priority 2016, dated 2020)
Read-outs that look alike come from different tables or passages of the source.

Key:
[1] = system: Myzus persicae; experiment: Myzus persicae - oral test; type: in vivo; conditions: after 5 days; for efficacy in % (aphids killed): 20 ppm; for pest or weed control at 20 ppm: Myzus persicae, 120 h, read-out: efficacy in % (aphids killed)
Description: Solvent: 100 parts by weight of acetone
Subsequently, the plates are sealed with parafilm, which a mixed population of green peach aphids (Myzus persicae) within a second microtitre plate is able to puncture and imbibe the solution through it.
After 5 days, the efficacy in % is determined. 100% means that all the aphids have been killed; 0% means that no aphids have been killed.

[2] = log P determination by HPLC on reversed-phase (C18) columns, OECD Guideline 117; type: physicochemical; conditions: for chromatographic logP: reversed-phase (C18) HPLC column
Description: The log P values were determined in accordance with OECD Guideline 117 (EC Directive 92/69/EEC) by HPLC (high-performance liquid chromatography) using reversed-phase (RP) columns (C18), by the following methods:
[a] The LC-MS determination in the acidic range was carried out at pH 2.7 with 0.1% aqueous formic acid and acetonitrile (contains 0.1% formic acid) as mobile phases; linear gradient from 10% acetonitrile to 95% acetonitrile.
[b] LC-MS determination in the neutral range was carried out at pH 7.8 with 0.001 molar aqueous ammonium hydrogencarbonate solution and acetonitrile as mobile phases; linear gradient from 10% acetonitrile to 95% acetonitrile.

[3] = system: Myzus persicae; experiment: Myzus persicae - spray test (Chinese cabbage leaf discs); type: in vivo; conditions: after 6 days; for pest or weed control at 500 g/ha: Myzus persicae, foliar, 144 h, read-out: efficacy in % (aphids killed)
Description: Myzus persicae—Spray Test
Solvent: 78 parts by weight of acetone • • 1.5 parts by weight of dimethylformamide
Emulsifier: alkylaryl polyglycol ether
To produce a suitable preparation of active compound, 1 part by weight of active compound is dissolved using the specified parts by weight of solvent and made up with water containing an emulsi fier concentration of 1000 ppm until the desired concentration is attained. To produce further test concentrations, the formulation is diluted with emulsifier-containing water.
Discs of Chinese cabbage leaves (Brassica pekinensis) infested by all stages of the green peach aphid (Myzus persicae) are sprayed with an active compound formulation of the desired concentration.
After 6 days, the efficacy in % is determined. 100% means that all the aphids have been killed; 0% means that no aphids have been killed.

[4] = HPLC, acidic range pH 2.7, 0.1% aqueous formic acid/acetonitrile
[5] = HPLC, neutral range pH 7.8, 0.001 molar aqueous ammonium hydrogencarbonate/acetonitrile
[6] = pH 2.7, HPLC, acidic range pH 2.7, 0.1% aqueous formic acid/acetonitrile, read-out: logp-acidic
[7] = pH 7.8, HPLC, neutral range pH 7.8, 0.001 molar aqueous ammonium hydrogencarbonate/acetonitrile, read-out: logp-neutral

COc1ncc(-c2ncc(C(=O)N(C)c3cccnc3)n2C)cc1C(F)(F)F [Example 95]
efficacy in % (aphids killed) [1]: 100%
logp-acidic ([2]; pH 2.7): 1.75
logp-neutral ([2]; pH 7.8): 2
efficacy in % (aphids killed) ([3]; 500 g/ha): 100%

CN(C(=O)c1cnc(-c2cccc([S+]([O-])CC(F)(F)F)c2)n1C)c1cccnc1 (centres unmarked) [Example 5]
efficacy in % (aphids killed) [1]: 100%
logp-acidic ([2]; pH 2.7): 1.07
logp-neutral ([2]; pH 7.8): 1.43
efficacy in % (aphids killed) ([3]; 500 g/ha): 90%

CN(C(=O)c1cnc(-c2cccc(C(F)(F)F)n2)n1C)c1cccnc1 [Example 86]
efficacy in % (aphids killed) [1]: 100%
logp-acidic ([2]; pH 2.7): 1.91
logp-neutral ([2]; pH 7.8): 2.04
efficacy in % (aphids killed) ([3]; 500 g/ha): 90%

CSc1ncccc1-c1ncc(C(=O)N(C)c2cccnc2)n1C [Example 91]
efficacy in % (aphids killed) [1]: 100%
logp-acidic ([2]; pH 2.7): 0.93
logp-neutral ([2]; pH 7.8): 1.33
efficacy in % (aphids killed) ([3]; 500 g/ha): 90%

CN(C(=O)c1cnc(-c2cc(C(F)(F)F)cc(C(F)(F)F)c2)n1C)c1cccnc1 [Example 53]
efficacy in % (aphids killed) [1]: 100%
logp-acidic ([2]; pH 2.7): 2.43
logp-neutral ([2]; pH 7.8): 2.63
efficacy in % (aphids killed) ([3]; 500 g/ha): 90%

COc1cc(C#N)cc(-c2ncc(C(=O)N(C)c3cccnc3)n2C)c1 [Example 100]
efficacy in % (aphids killed) [1]: 100%
logp-acidic [2, 4]: 1.34
logp-neutral [2, 5]: 1.57
efficacy in % (aphids killed) ([3]; 500 g/ha): 90%

CN(C(=O)c1cnc(-c2cccc(COC(=O)C3CC3)c2)n1C)c1cccnc1 [Example 45]
efficacy in % (aphids killed) [1]: 90%
logp-acidic ([2]; pH 2.7): 1.28
logp-neutral ([2]; pH 7.8): 1.86
efficacy in % (aphids killed) ([3]; 500 g/ha): 90%

CN(C(=O)c1cnc(-c2cccc(CC(F)(F)F)c2)n1C)c1cccnc1 [Example 56]
efficacy in % (aphids killed) [1]: 100%
logp-neutral ([2]; pH 7.8): 1.96
efficacy in % (aphids killed) ([3]; 500 g/ha): 90%

CSc1cccc(-c2ncc(C(=O)N(C)c3cccnc3)n2C)c1 [Example 3]
efficacy in % (aphids killed) [1]: 100%
logp-acidic ([2]; pH 2.7): 1.24
logp-neutral ([2]; pH 7.8): 1.75
efficacy in % (aphids killed) ([3]; 500 g/ha): 90%

CN(C(=O)c1cnc(-c2cccc(Cl)c2)n1C)c1cccnc1 [Example 10]
efficacy in % (aphids killed) [1]: 100%
logp-acidic [2, 4]: 1.29
efficacy in % (aphids killed) ([3]; 500 g/ha): 90%

CN(C(=O)c1cnc(-c2cccc(S(C)(=O)=O)c2)n1C)c1cccnc1 [Example 22]
efficacy in % (aphids killed) [1]: 100%
logp-acidic ([2]; pH 2.7): 0.75
logp-neutral ([2]; pH 7.8): 1.08
efficacy in % (aphids killed) ([3]; 500 g/ha): 100%

CN(C(=O)c1cnc(-c2cccc3c2OCC3)n1C)c1cccnc1 [Example 79]
efficacy in % (aphids killed) [1]: 100%
logp-acidic ([2]; pH 2.7): 0.7
efficacy in % (aphids killed) ([3]; 500 g/ha): 100%

CN(C(=O)c1cnc(-c2cccc(C#N)c2)n1C)c1cccnc1 [Example 58]
efficacy in % (aphids killed) [1]: 100%
logp-acidic [2, 4]: 0.91
logp-neutral [2, 5]: 1.33
efficacy in % (aphids killed) ([3]; 500 g/ha): 100%

COc1ccc(-c2ncc(C(=O)N(C)c3cccnc3)n2C)cn1 [Example 103]
efficacy in % (aphids killed) [1]: 100%
logp-acidic ([2]; pH 2.7): 0.58
logp-neutral ([2]; pH 7.8): 1.25
efficacy in % (aphids killed) ([3]; 500 g/ha): 100%

CCOc1ncc(-c2ncc(C(=O)N(C)c3cccnc3)n2C)cc1C#N [Example 67]
efficacy in % (aphids killed) [1]: 100%
logp-acidic ([2]; pH 2.7): 1.50
logp-neutral ([2]; pH 7.8): 1.73
efficacy in % (aphids killed) ([3]; 500 g/ha): 100%

CN(C(=O)c1cnc(-c2cc(F)cc(C#N)c2)n1C)c1cccnc1 [Example 60]
efficacy in % (aphids killed) [1]: 100%
logp-acidic ([2]; pH 2.7): 1.21
logp-neutral ([2]; pH 7.8): 1.52
efficacy in % (aphids killed) ([3]; 500 g/ha): 90%

CN(C(=O)c1cnc(-c2ccc(Cl)c(Cl)c2)n1C)c1cccnc1 [Example 13]
efficacy in % (aphids killed) [1]: 100%
logp-acidic [2, 4]: 1.79
efficacy in % (aphids killed) ([3]; 500 g/ha): 90%

CN(C(=O)c1cnc(-c2cc(-c3ccccc3)no2)n1C)c1cccnc1 [Example 71]
pest or weed control at 20 ppm [1]: 100%
chromatographic logP [2, 6]: 1.9
chromatographic logP [2, 7]: 2.37
pest or weed control at 500 g/ha ([3]; 500 g/ha): 100%

COc1ncc(F)cc1-c1ncc(C(=O)N(C)c2cccnc2)n1C [Example 101]
efficacy in % (aphids killed) [1]: 100%
logp-acidic ([2]; pH 2.7): 0.91
logp-neutral ([2]; pH 7.8): 1.38
efficacy in % (aphids killed) ([3]; 500 g/ha): 100%

CN(C(=O)c1cnc(-c2cc(F)cc(C(F)(F)F)c2)n1C)c1cccnc1 [Example 54]
efficacy in % (aphids killed) [1]: 100%
logp-acidic ([2]; pH 2.7): 1.90
logp-neutral ([2]; pH 7.8): 2.14
efficacy in % (aphids killed) ([3]; 500 g/ha): 90%

CN(C(=O)c1cnc(-c2ncccc2Cl)n1C)c1cccnc1 [Example 106]
efficacy in % (aphids killed) [1]: 90%
logp-acidic ([2]; pH 2.7): 0.75
logp-neutral ([2]; pH 7.8): 1.1
efficacy in % (aphids killed) ([3]; 500 g/ha): 90%

CN(C(=O)c1cnc(-c2ccc(F)c3ccccc23)n1C)c1cccnc1 [Example 30]
efficacy in % (aphids killed) [1]: 100%
logp-acidic ([2]; pH 2.7): 1.57
logp-neutral ([2]; pH 7.8): 2.05
efficacy in % (aphids killed) ([3]; 500 g/ha): 90%

CN(C(=O)c1cnc(-c2ccccn2)n1C)c1cccnc1 [Example 47]
pest or weed control at 20 ppm [1]: 100%
chromatographic logP [2, 6]: 0.74
chromatographic logP [2, 7]: 1.16
pest or weed control at 500 g/ha ([3]; 500 g/ha): 90%

CC(C)n1cc(-c2ncc(C(=O)N(C)c3cccnc3)n2C)nn1 [Example 73]
efficacy in % (aphids killed) [1]: 100%
logp-acidic ([2]; pH 2.7): 0.88
logp-neutral ([2]; pH 7.8): 1.24
efficacy in % (aphids killed) ([3]; 500 g/ha): 100%

CCOc1ccc(-c2ncc(C(=O)N(C)c3cccnc3)n2C)cn1 [Example 89]
efficacy in % (aphids killed) [1]: 100%
logp-acidic ([2]; pH 2.7): 0.93
logp-neutral ([2]; pH 7.8): 1.53
efficacy in % (aphids killed) ([3]; 500 g/ha): 90%

CC(C)Oc1ccc(-c2ncc(C(=O)N(C)c3cccnc3)n2C)cn1 [Example 102]
efficacy in % (aphids killed) [1]: 100%
logp-acidic ([2]; pH 2.7): 1.21
logp-neutral ([2]; pH 7.8): 1.79
efficacy in % (aphids killed) ([3]; 500 g/ha): 90%

CN(C(=O)c1cnc(-c2cccc(SC(F)(F)F)c2)n1C)c1cccnc1 [Example 17]
efficacy in % (aphids killed) [1]: 100%
logp-acidic ([2]; pH 2.7): 2.00
logp-neutral ([2]; pH 7.8): 2.28
efficacy in % (aphids killed) ([3]; 500 g/ha): 90%

COc1cc(-c2ncc(C(=O)N(C)c3cccnc3)n2C)cnc1OC [Example 93]
efficacy in % (aphids killed) [1]: 100%
logp-acidic ([2]; pH 2.7): 0.66
logp-neutral ([2]; pH 7.8): 1.28
efficacy in % (aphids killed) ([3]; 500 g/ha): 90%

CN(C(=O)c1cnc(-c2ccccc2OCC(N)=O)n1C)c1cccnc1 [Example 104]
efficacy in % (aphids killed) [1]: 100%
logp-acidic ([2]; pH 2.7): 0.23
logp-neutral ([2]; pH 7.8): 1.03
efficacy in % (aphids killed) ([3]; 500 g/ha): 100%

CN(C(=O)c1cnc(-c2cnn(-c3ccccc3C#N)c2)n1C)c1cccnc1 [Example 24]
efficacy in % (aphids killed) [1]: 100%
logp-acidic ([2]; pH 2.7): 1.07
logp-neutral ([2]; pH 7.8): 1.49
efficacy in % (aphids killed) ([3]; 500 g/ha): 90%

COc1ncccc1-c1ncc(C(=O)N(C)c2cccnc2)n1C [Example 88]
efficacy in % (aphids killed) [1]: 100%
logp-acidic ([2]; pH 2.7): 0.53
logp-neutral ([2]; pH 7.8): 1.16
efficacy in % (aphids killed) ([3]; 500 g/ha): 90%

Cc1cc(C)cc(-c2ncc(C(=O)N(C)c3cccnc3)n2C)c1 [Example 8]
efficacy in % (aphids killed) [1]: 100%
logp-acidic [2, 4]: 1.16
efficacy in % (aphids killed) ([3]; 100 g/ha): 90%

CN(C(=O)c1cnc(-c2cnn(-c3ccccc3)c2)n1C)c1cccnc1 [Example 26]
efficacy in % (aphids killed) [1]: 100%
logp-acidic ([2]; pH 2.7): 1.19
logp-neutral ([2]; pH 7.8): 1.70
efficacy in % (aphids killed) ([3]; 500 g/ha): 90%

CC(=O)OCc1cc(-c2ncc(C(=O)N(C)c3cccnc3)n2C)ccc1F [Example 44]
efficacy in % (aphids killed) [1]: 90%
logp-acidic ([2]; pH 2.7): 1.39
logp-neutral ([2]; pH 7.8): 1.81
efficacy in % (aphids killed) ([3]; 500 g/ha): 90%

CN(C(=O)c1cnc(-c2cccn2C)n1C)c1cccnc1 [Example 14]
pest or weed control at 20 ppm [1]: 100%
chromatographic logP [2, 6]: 0.62
pest or weed control at 500 g/ha ([3]; 500 g/ha): 90%

COCc1cccc(-c2ncc(C(=O)N(C)c3cccnc3)n2C)c1 [Example 19]
efficacy in % (aphids killed) [1]: 90%
logp-acidic [2, 4]: 0.86
logp-neutral [2, 5]: 1.43
efficacy in % (aphids killed) ([3]; 500 g/ha): 90%

CCN(C(=O)c1cnc(-c2cnc(OC)c(C#N)c2)n1C)c1cccnc1 [Example 75]
pest or weed control at 20 ppm [1]: 100%
chromatographic logP [2, 6]: 1.46
chromatographic logP [2, 7]: 1.65
pest or weed control at 500 g/ha ([3]; 500 g/ha): 100%

COc1ncc(-c2ncc(C(=O)N(C)c3cccnc3)n2C)cc1Cl [Example 90]
efficacy in % (aphids killed) [1]: 100%
logp-acidic ([2]; pH 2.7): 1.28
logp-neutral ([2]; pH 7.8): 1.68
efficacy in % (aphids killed) ([3]; 500 g/ha): 90%

CN(C(=O)c1cnc(-c2ccccc2Cl)n1C)c1cccnc1 [Example 9]
efficacy in % (aphids killed) [1]: 100%
logp-acidic [2, 4]: 1.10
efficacy in % (aphids killed) ([3]; 500 g/ha): 100%
